Data published in article PMC4057235, “Development and Evaluation of Small Peptidomimetic Ligands to Protease-Activated Receptor-2 (PAR2) through the Use of Lipid Tethering” (PLoS ONE, 2014).
Read-outs that look alike come from different tables or passages of the source. Blank lines part the entries; values can stand above or below the compound they belong to. Square brackets hold non-standard residues; d marks the D form. Peptide text beside a SMILES is read from it. * marks the point of attachment. 4Thiazolecarbonyl(2-NH2) = Nc1nc(C(=O)*)cs1; Cha = N[C@@H](CC1CCCCC1)C(=O)O

What was measured:
PAR2 = target: T1, PAR2 (Homo sapiens, UniProt P55085); experiment: xCELLigence RTCA in vitro physiological response, 16HBE14o- cells; type: cell-based; conditions: for EC50: peak Normalized Cell Index within 4 hr
T1 construct: 16HBE14o- cells on E-plates in growth medium; endogenous in cells; host or cells: 16HBE14o- cells
T1 sequence (P55085 26-397): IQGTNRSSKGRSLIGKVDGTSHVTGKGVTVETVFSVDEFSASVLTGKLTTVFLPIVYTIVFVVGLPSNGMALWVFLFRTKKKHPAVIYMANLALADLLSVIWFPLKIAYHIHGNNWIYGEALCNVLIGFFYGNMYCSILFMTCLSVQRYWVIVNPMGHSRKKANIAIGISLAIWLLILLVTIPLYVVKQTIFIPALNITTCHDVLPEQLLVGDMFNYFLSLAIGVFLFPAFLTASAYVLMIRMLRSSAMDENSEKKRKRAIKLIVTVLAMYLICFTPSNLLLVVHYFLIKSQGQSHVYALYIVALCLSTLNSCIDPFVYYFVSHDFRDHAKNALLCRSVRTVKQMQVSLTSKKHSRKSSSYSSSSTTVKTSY
Description: 16HBE14o- cells, a SV40 transformed human bronchial epithelial cell line, were obtained through the California Pacific Medical Center Research Institute (San Francisco, CA, USA). Cells were maintained and expanded as previously described. Briefly, cell lines were expanded in tissue culture flasks prior to transfer to 96 well E-plates (Roche) for experiments. Flasks and 96 well E-plates were coated initially with a matrix coating solution (88% Lechner and LaVeck basal medium, 10% bovine serum albumin (BSA; from 1 mg/ml stock), 1% bovine collagen type I (from 2.9 mg/ml stock), and 1% human fibronectin (from 1 mg/ml stock solution) and incubated for 2 hr at 37°C, after which the coating solution was removed and allowed to dry for at least 1 hr. 16HBE14o- cells were plated at a concentration of 1×10^5 cells/cm^2 and grown in Eagle’s Minimal Essential Medium supplemented with 10% Fetal Bovine Serum (FBS), 2 mM glutamax, penicillin and streptomycin (growth medium) at 37°C in a 5% CO2 atmosphere. Growth medium was replaced every other day until the cells reached confluence (5–7 days). Cells were then transferred to 96 well E-plates for RTCA, or collagen/fibronectin/BSA coated glass coverslips for Ca^2+ imaging experiments.
16HBE14o- cells on E-plates in growth medium and in a 37°C, 5% CO2 incubator were monitored for the establishment for relative impedance overnight every 15 min using the xCELLigence™ Real Time Cell Analyzer (RTCA, Roche), [28], [30]. When cells reached baseline impedance the next day, and prior to the experiment, the RTCA was moved to room air and temperature where full growth medium was replaced with 100μL modified Hank’s Balanced Saline Solution (HBSS) pre-warmed to 37°C. The RTCA was then allowed to come to room temperature (45–60 min) prior to ligand addition. Each well was then supplemented with 100 µL HBSS containing appropriate ligands to measure concentration response ranges in quadruplicate. Additional wells were used for vehicle controls. Relative impedance in each well was monitored every 30 sec over 4 hr. Peak responses, defined as the maximal change in Normalized Cell Index, were used to define maximal response concentrations and physiological EC50s for each ligand.

mice = experiment: In vivo mechanical sensitivity (von Frey) after hindpaw injection; parameters: species or system mouse; conditions: 15 pmoles into plantar hindpaw, 1 and 3 hr post-injection
Procedure: Male ICR mice (Harlan) or PAR2 ^-/- mice and their wild type littermates on a C57Bl/6 background weighing 25–30 grams were used for these studies. Animal protocols were approved by the Institutional Animal Care and Use Committee of The University of Arizona. Compounds were injected into the plantar surface of the hindpaw in a total volume of 25 µL using a 31-gauge needle. Compounds were diluted using sterile saline. Mechanical thresholds were determined using calibrated von Frey filaments (Stoelting Co, Wood Dale, IN) with the up-down method. The experimenter was always blinded to the treatment conditions and animals were randomized such that animals in a single experimental group were never all housed together.

MrgprC11 = target: T2, MrgprC11 (Mus musculus, UniProt Q8CIP3); experiment: Ca2+ response in MrgprC11 transfected CHO cells; type: cell-based
T2 construct: An MrgprC11 cDNA in pcDNA3.1 vector was transfected into CHO cells; expressed in transfected cells; host or cells: CHO cells, transient transfection with Lipofectamine 2000
T2 sequence (Q8CIP3 1-322): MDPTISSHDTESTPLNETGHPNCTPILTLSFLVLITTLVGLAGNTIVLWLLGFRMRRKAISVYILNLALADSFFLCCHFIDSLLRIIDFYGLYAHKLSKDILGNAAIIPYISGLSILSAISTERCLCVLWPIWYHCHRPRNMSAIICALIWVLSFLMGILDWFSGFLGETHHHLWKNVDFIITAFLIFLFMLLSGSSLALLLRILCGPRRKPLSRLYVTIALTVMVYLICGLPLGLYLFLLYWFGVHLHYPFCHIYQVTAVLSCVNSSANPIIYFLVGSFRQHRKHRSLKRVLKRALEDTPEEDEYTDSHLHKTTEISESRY
Procedure: CHO cells were cultured in DMEM supplemented with 10% FBS and 1% penicillin and streptomycin at 37°C in a 5% CO2 atmosphere. One day before transfection, CHO cells were plated in a 60 mm cell culture dish at a concentration of 1×10^5 cells/cm^2 and grown without antibiotics. An MrgprC11 cDNA in pcDNA3.1 vector was transfected into CHO cells using Lipofectamine™ 2000 (Invitrogen) prior to transfer to coverslips for experiments. Coverslips were coated with 0.1 mg/ml poly-D-lysine (from 2 mg/ml stock) and incubated for 1 hr at room temperature, after which the coating solution was removed and the coverslips were washed twice with double distilled water. CHO cells were seeded on coverslips at a concentration of 1×10^5 cells/cm^2 6 hr after transfection. Transfected cells were incubated for 24 hr prior to Ca^2+ imaging.
16HBE14o- cells or CHO cells were loaded with fura 2-acetomethoxyl ester (CalBiochem or Molecular Probes) for 30 min at room temperature. Cells were washed with HBSS and allowed to sit for at least 20 min prior to digital imaging. For activation and desensitization assay experiments using 16HBE14o- cells, [Ca^2+]i was measured as previously described. Experiments consisted of 20 sec of recording of cells in HBSS to determine resting [Ca^2+]i, followed by a 10 sec wash to introduce ligand and up to 10 min of recording for ligand washes required for desensitization experiments. Briefly, fura-2 fluorescence was observed on an Olympus IX70 microscope with a 40X oil immersion objective after alternating excitation between 340 and 380 nm by a 75 W Xenon lamp linked to a Delta Ram V illuminator (PTI) and a gel optic line. Intracellular Ca^2+ concentration ([Ca^2+]i) for each individual cell in the field of view was calculated by ratiometric analysis of fura-2 fluorescence using equations originally published in [31]. Individual ratios were calculated every sec throughout the experiments. [Ca^2+]i traces over time are averaged [Ca^2+]i of all cells within a field of view (80–120) and are representative of at least 3 experiments. Cells were considered activated by the ligand if their resting [Ca^2+]i was increased above a 200 nM threshold, a 2–4 fold increase above typical resting values. Percent activation graphs are determined from 3–6 experiments for each ligand concentration. Time to threshold in individual cells represent between 200–400 cells from at least 3 experiments at each ligand concentration. Ca^2+ imaging of CHO cells was similar; each ligand concentration tested included at least 3 experiments and a minimum of 200 cells analyzed during each experiment.

SMILES: CCCCCCCCCCCCCCCCNC(=O)COCC(=O)NCCCOCCOCCOCCCNC(=O)COCC(=O)NCCCOCCOCCOCCCNC(=O)[C@@H](NC(=O)[C@H](CC1CCCCC1)NC(=O)c1csc(N)n1)[C@@H](C)CC [Compound 13, 2at-Cha-I-PEG2-Hdc]
EC50 (PAR2): 86 nM

SMILES: CC[C@H](C)[C@H](NC(=O)[C@H](CC1CCCCC1)NC(=O)c1csc(N)n1)C(=O)NCC(=O)N[C@@H](CCCNC(=N)N)C(N)=O [Compound 7, 2at-Cha-IGR-NH2] ({4Thiazolecarbonyl(2-NH2)}-[Cha]IGR-NH2)
EC50 (PAR2): 490 nM

SMILES: CCCCCCCCCCCCCCCCNC(=O)COCC(=O)NCCCOCCOCCOCCCNC(=O)COCC(=O)NCCCOCCOCCOCCCNC(=O)COCC(=O)NCCCOCCOCCOCCCNC(=O)C(CC(C)C)NC(=O)c1csc(N)n1 [Compound 5, 2at-L-PEG3-Hdc]
RTCA response / agonism (peak Normalized Cell Index) (PAR2): eliminated ligand activity
RTCA response / agonism (peak Normalized Cell Index) (PAR2; listed as 2at-L-PEG 3-Hdc): eliminated in vitro activity
mechanical hypersensitivity (von Frey) (mice): inactive
mechanical hypersensitivity (von Frey) (mice; listed as 2at-L-PEG 3-Hdc): lacked efficacy

SMILES: CCCCCCCCCCCCCCCCNC(=O)COCC(=O)NCCCOCCOCCOCCCNC(=O)COCC(=O)NCCCOCCOCCOCCCNC(=O)[C@H](CCCNC(=N)N)NC(=O)CNC(=O)[C@@H](NC(=O)[C@H](CC1CCCCC1)NC(=O)c1ccno1)[C@@H](C)CC [Compound 12, 5io-Cha-IGR-PEG2-Hdc]
EC50 (PAR2): 6.8 nM

SMILES: CCCCCCCCCCCCCCCCNC(=O)COCC(=O)NCCCOCCOCCOCCCNC(=O)COCC(=O)NCCCOCCOCCOCCCNC(=O)COCC(=O)NCCCOCCOCCOCCCNC(=O)[C@H](CC(C)C)NC(=O)[C@H](CCCNC(=N)N)NC(=O)CNC(=O)[C@@H](NC(=O)[C@H](CC(C)C)NC(=O)c1csc(N)n1)[C@@H](C)CC [Compound 1, 2at-LIGRL-PEG3-Hdc]
EC50 (PAR2): 1.7 nM
Ca2+ response (% of cells) (MrgprC11; 1 nM): 0%
Ca2+ response (% of cells) (MrgprC11; 10 nM): 2.5%
Ca2+ response (% of cells) (MrgprC11; 100 nM): 10%
Ca2+ response (% of cells) (MrgprC11; 1 µM): 20%
Ca2+ response (% of cells) (MrgprC11; 10 µM): 88 ± 19%

Next, values leading:

RTCA response / agonism (peak Normalized Cell Index) (PAR2): eliminated ligand activity
RTCA response / agonism (peak Normalized Cell Index) (PAR2; listed as 2at-PEG 3-Hdc): eliminated in vitro activity
SMILES: CCCCCCCCCCCCCCCCNC(=O)COCC(=O)NCCCOCCOCCOCCCNC(=O)COCC(=O)NCCCOCCOCCOCCCNC(=O)COCC(=O)NCCCOCCOCCOCCCNC(=O)c1csc(N)n1 [Compound 6, 2at-PEG3-Hdc]

EC50 (PAR2): 43 nM
SMILES: CCCCCCCCCCCCCCCCNC(=O)COCC(=O)NCCCOCCOCCOCCCNC(=O)COCC(=O)NCCCOCCOCCOCCCNC(=O)[C@@H](NC(=O)[C@H](CC1CCCCC1)NC(=O)c1ccno1)[C@@H](C)CC [Compound 14, 5io-Cha-I-PEG2-Hdc]

EC50 (PAR2): 310 nM
SMILES: CCCCCCCCCCCCCCCCNC(=O)COCC(=O)NCCCOCCOCCOCCCNC(=O)COCC(=O)NCCCOCCOCCOCCCNC(=O)COCC(=O)NCCCOCCOCCOCCCNC(=O)[C@@H](NC(=O)[C@H](CC(C)C)NC(=O)c1csc(N)n1)[C@@H](C)CC [Compound 4, 2at-LI-PEG3-Hdc]

EC50 (PAR2): 1100 nM
SMILES: CC[C@H](C)[C@H](NC(=O)[C@H](CC1CCCCC1)NC(=O)c1csc(N)n1)C(N)=O [Compound 9, 2at-Cha-I-NH2]

EC50 (PAR2): 2.1 nM
Ca2+ response (% of cells) (MrgprC11; 100 nM): 0.5%
SMILES: CCCCCCCCCCCCCCCCNC(=O)COCC(=O)NCCCOCCOCCOCCCNC(=O)COCC(=O)NCCCOCCOCCOCCCNC(=O)COCC(=O)NCCCOCCOCCOCCCNC(=O)[C@H](CCCNC(=N)N)NC(=O)CNC(=O)[C@@H](NC(=O)[C@H](CC(C)C)NC(=O)c1csc(N)n1)[C@@H](C)CC [Compound 2, 2at-LIGR-PEG3-Hdc]

EC50 (PAR2): 16 nM
SMILES: CCCCCCCCCCCCCCCCNC(=O)COCC(=O)NCCCOCCOCCOCCCNC(=O)COCC(=O)NCCCOCCOCCOCCCNC(=O)[C@H](CCCNC(=N)N)NC(=O)CNC(=O)[C@@H](NC(=O)[C@H](CC1CCCCC1)NC(=O)c1csc(N)n1)[C@@H](C)CC [Compound 11, 2at-Cha-IGR-PEG2-Hdc]

EC50 (PAR2): 46 nM
SMILES: CCCCCCCCCCCCCCCCNC(=O)COCC(=O)NCCCOCCOCCOCCCNC(=O)COCC(=O)NCCCOCCOCCOCCCNC(=O)COCC(=O)NCCCOCCOCCOCCCNC(=O)CNC(=O)[C@@H](NC(=O)[C@H](CC(C)C)NC(=O)c1csc(N)n1)[C@@H](C)CC [Compound 3, 2at-LIG-PEG3-Hdc]
